Experiments:
Acinetobacter baumannii [1] = experiment: Antimicrobial activity against oxacillinase-58 producing Acinetobacter baumannii K12-21 assessed as reduction in bacterial growth incubated for 48 hrs by microdilution method; type: functional
MRC5 = experiment: Cytotoxicity against human MRC5 cells assessed as reduction in cell viability incubated for 24 hrs by colorimetric tetrazolium assay; type: functional, cell-based; conditions: MRC5, 24 h
[2] = Antimicrobial activity against carbapenemase producing Klebsiella pneumoniae K47-25 assessed as reduction in bacterial growth incubated for 48 hrs by microdilution method; type: functional
Staphylococcus aureus [3] = experiment: Antimicrobial activity against Staphylococcus aureus ATCC 9144 assessed as reduction in bacterial growth incubated for 48 hrs by microdilution susceptibility test; type: functional
[4] = Hemolytic activity in human erythrocytes incubated for 1 hr by microplate reader; type: functional, cell-based; conditions: erythrocyte
Staphylococcus aureus [5] = experiment: Antimicrobial activity against extended spectrum-lactamase-carbapenemas producing Staphylococcus aureus strain 85/2082 assessed as reduction in bacterial growth incubated for 48 hrs by microdilution method; type: functional
Escherichia coli [6] = experiment: Antimicrobial activity against verona integron-encoded metallo-beta-lactamase-29-producing Escherichia coli 50639799 assessed as reduction in bacterial growth incubated for 48 hrs by microdilution method; type: functional
Escherichia coli [7] = experiment: Antimicrobial activity against imipenem-type carbapenemase-26 producing Escherichia coli 50857972 assessed as reduction in bacterial growth incubated for 48 hrs by microdilution method; type: functional
[8] = Antimicrobial activity against New Delhi metallo-beta lactamase-1 and oxacillinase -181 producing Klebsiella pneumoniae 50531633 assessed as reduction in bacterial growth incubated for 48 hrs by microdilution method; type: functional
Acinetobacter baumannii [9] = experiment: Antimicrobial activity against oxacillinase-23 producing Acinetobacter baumannii K63-58 assessed as reduction in bacterial growth incubated for 48 hrs by microdilution method; type: functional
Pseudomonas aeruginosa [10] = experiment: Antimicrobial activity against verona integron-encoded metallo-beta-lactamase producing Pseudomonas aeruginosa 50692520 assessed as reduction in bacterial growth incubated for 48 hrs by microdilution method; type: functional
Pseudomonas aeruginosa [11] = experiment: Antimicrobial activity against New Delhi metallo-beta lactamase-1 producing Pseudomonas aeruginosa 50692172 assessed as reduction in bacterial growth incubated for 48 hrs by microdilution method; type: functional
Enterococcus faecium [12] = experiment: Antimicrobial activity against extended spectrum-lactamase-carbapenemas producing Enterococcus faecium strain TUH.50-22 assessed as reduction in bacterial growth incubated for 48 hrs by microdilution method; type: functional
[13] = system: Corynebacterium glutamicum; experiment: Antimicrobial activity against Corynebacterium glutamicum ATCC 13032 assessed as reduction in bacterial growth incubated for 48 hrs by microdilution susceptibility test; type: functional
Acinetobacter baumannii [14] = experiment: Antimicrobial activity against oxacillinase-23 producing Acinetobacter baumannii K47-42 assessed as reduction in bacterial growth incubated for 48 hrs by microdilution method; type: functional
Pseudomonas aeruginosa [15] = experiment: Antimicrobial activity against verona integron-encoded metallo-beta-lactamase-4 producing Pseudomonas aeruginosa K34-73 assessed as reduction in bacterial growth incubated for 48 hrs by microdilution method; type: functional
HepG2 = experiment: Cytotoxicity against human HepG2 cells assessed as reduction in cell viability incubated for 24 hrs by colorimetric tetrazolium assay; type: functional, cell-based; conditions: HepG2, 24 h
Acinetobacter baumannii [16] = experiment: Antimicrobial activity against oxacillinase-23 producing Acinetobacter baumannii K44-35 assessed as reduction in bacterial growth incubated for 48 hrs by microdilution method; type: functional
Staphylococcus aureus [17] = experiment: Antimicrobial activity against extended spectrum-lactamase-carbapenemas producing Staphylococcus aureus strain WIS assessed as reduction in bacterial growth incubated for 48 hrs by microdilution method; type: functional
Escherichia coli [18] = experiment: Antimicrobial activity against oxacillinase-producing Escherichia coli 50579417 assessed as reduction in bacterial growth incubated for 48 hrs by microdilution method; type: functional
Pseudomonas aeruginosa [19] = experiment: Antimicrobial activity against verona integron-encoded metallo-beta-lactamase-2 producing Pseudomonas aeruginosa K34-7 assessed as reduction in bacterial growth incubated for 48 hrs by microdilution method; type: functional
Escherichia coli [20] = experiment: Antimicrobial activity against New Delhi metallo-beta lactamase-1 producing Escherichia coli 50676002 assessed as reduction in bacterial growth incubated for 48 hrs by microdilution method; type: functional
Staphylococcus aureus [21] = experiment: Antimicrobial activity against extended spectrum-lactamase-carbapenemas producing Staphylococcus aureus NCTC 10442 assessed as reduction in bacterial growth incubated for 48 hrs by microdilution method; type: functional
Pseudomonas aeruginosa [22] = experiment: Antimicrobial activity against imipenem-type carbapenemase-14 producing Pseudomonas aeruginosa K44-24 assessed as reduction in bacterial growth incubated for 48 hrs by microdilution method; type: functional
Enterococcus faecium [23] = experiment: Antimicrobial activity against extended spectrum-lactamase-carbapenemas producing Enterococcus faecium strain 50901530 assessed as reduction in bacterial growth incubated for 48 hrs by microdilution method; type: functional
[24] = Antimicrobial activity against oxacillinase-245 producing Klebsiella pneumoniae 50625602 assessed as reduction in bacterial growth incubated for 48 hrs by microdilution method; type: functional
[25] = Antimicrobial activity against New Delhi metallo-beta lactamase-1 Klebsiella pneumoniae K66-45 assessed as reduction in bacterial growth incubated for 48 hrs by microdilution method; type: functional
Enterococcus faecium [26] = experiment: Antimicrobial activity against extended spectrum-lactamase-carbapenemas producing Enterococcus faecium strain K36-18 assessed as reduction in bacterial growth incubated for 48 hrs by microdilution method; type: functional
Acinetobacter baumannii [27] = experiment: Antimicrobial activity against oxacillinase-24 producing Acinetobacter baumannii K55-13 assessed as reduction in bacterial growth incubated for 48 hrs by microdilution method; type: functional
Enterococcus faecium [28] = experiment: Antimicrobial activity against extended spectrum-lactamase-carbapenemas producing Enterococcus faecium strain 50673722 assessed as reduction in bacterial growth incubated for 48 hrs by microdilution method; type: functional
[29] = Antimicrobial activity against verona integron-encoded metallo-beta-lactamase -1 producing Klebsiella pneumoniae 50667959 assessed as reduction in bacterial growth incubated for 48 hrs by microdilution method; type: functional
Pseudomonas aeruginosa [30] = experiment: Antimicrobial activity against Pseudomonas aeruginosa PAO1 assessed as reduction in bacterial growth incubated for 48 hrs by microdilution susceptibility test; type: functional
Escherichia coli [31] = experiment: Antimicrobial activity against New Delhi metallo-beta lactamase-1 producing Escherichia coli 50739822 assessed as reduction in bacterial growth incubated for 48 hrs by microdilution method; type: functional
Enterococcus faecium [32] = experiment: Antimicrobial activity against extended spectrum-lactamase-carbapenemas producing Enterococcus faecium strain 50758899 assessed as reduction in bacterial growth incubated for 48 hrs by microdilution method; type: functional
Staphylococcus aureus [33] = experiment: Antimicrobial activity against extended spectrum-lactamase-carbapenemas producing Staphylococcus aureus N315 assessed as reduction in bacterial growth incubated for 48 hrs by microdilution method; type: functional
Staphylococcus aureus [34] = experiment: Antimicrobial activity against extended spectrum-lactamase-carbapenemas producing Staphylococcus aureus strain IHT 99040 assessed as reduction in bacterial growth incubated for 48 hrs by microdilution method; type: functional
Escherichia coli [35] = experiment: Antimicrobial activity against Escherichia coli ATCC 25922 assessed as reduction in bacterial growth incubated for 48 hrs by microdilution susceptibility test; type: functional

Row | SMILES | MIC (Acinetobacter baumannii [1]) | IC50 (MRC5) | MIC [2] | MIC (Staphylococcus aureus [3]) | EC50 [4] | MIC (Staphylococcus aureus [5]) | MIC (Escherichia coli [6]) | MIC (Escherichia coli [7]) | MIC [8] | MIC (Acinetobacter baumannii [9]) | MIC (Pseudomonas aeruginosa [10]) | MIC (Pseudomonas aeruginosa [11]) | MIC (Enterococcus faecium [12]) | MIC [13] | MIC (Acinetobacter baumannii [14]) | MIC (Pseudomonas aeruginosa [15]) | IC50 (HepG2) | MIC (Acinetobacter baumannii [16]) | MIC (Staphylococcus aureus [17]) | MIC (Escherichia coli [18]) | also measured
1 | N=C(N)NCCCCN1C(=O)N(CCCCNC(=N)N)C(=O)C(Cc2ccc(F)c3ccccc23)(Cc2ccc(F)c3ccccc23)C1=O.O=C(O)C(F)(F)F.O=C(O)C(F)(F)F | 8 µg/mL | 23 µg/mL | 8 µg/mL | 1 µg/mL | 90 µg/mL | 2 µg/mL | 4 µg/mL | 4 µg/mL | 8 µg/mL | 8 µg/mL | 16 µg/mL | 16 µg/mL | 4 µg/mL | 0.25 µg/mL | 8 µg/mL | 8 µg/mL | 56 µg/mL | 8 µg/mL | 2 µg/mL | 8 µg/mL | MIC (Pseudomonas aeruginosa [19]): 16 µg/mL; MIC (Escherichia coli [20]): 4 µg/mL; MIC (Staphylococcus aureus [21]): 2 µg/mL; MIC (Pseudomonas aeruginosa [22]): 16 µg/mL; MIC (Enterococcus faecium [23]): 4 µg/mL; MIC [24]: 16 µg/mL; MIC [25]: 4 µg/mL; MIC (Enterococcus faecium [26]): 4 µg/mL; MIC (Acinetobacter baumannii [27]): 8 µg/mL; MIC (Enterococcus faecium [28]): 4 µg/mL; MIC [29]: 4 µg/mL; MIC (Pseudomonas aeruginosa [30]): 4 µg/mL; MIC (Escherichia coli [31]): 8 µg/mL; MIC (Enterococcus faecium [32]): 4 µg/mL; MIC (Staphylococcus aureus [33]): 2 µg/mL; MIC (Staphylococcus aureus [34]): 2 µg/mL; MIC (Escherichia coli [35]): 1 µg/mL
2 | NCCCCN1C(=O)N(CCCCN)C(=O)C(Cc2ccc3ccccc3c2)(Cc2ccc3ccccc3c2)C1=O.O=C(O)C(F)(F)F.O=C(O)C(F)(F)F | 32 µg/mL | 2 µg/mL | > 32 µg/mL | 8 µg/mL | 250 µg/mL | 8 µg/mL | 16 µg/mL | 16 µg/mL | 32 µg/mL | 16 µg/mL | 32 µg/mL | 32 µg/mL | 8 µg/mL | 1 µg/mL | 32 µg/mL | 32 µg/mL | 7 µg/mL | 32 µg/mL | 8 µg/mL | 16 µg/mL | MIC (Pseudomonas aeruginosa [19]): 32 µg/mL; MIC (Escherichia coli [20]): 16 µg/mL; MIC (Staphylococcus aureus [21]): 8 µg/mL; MIC (Pseudomonas aeruginosa [22]): > 32 µg/mL; MIC (Enterococcus faecium [23]): 8 µg/mL; MIC [24]: > 32 µg/mL; MIC [25]: > 32 µg/mL; MIC (Enterococcus faecium [26]): 16 µg/mL; MIC (Acinetobacter baumannii [27]): 32 µg/mL; MIC (Enterococcus faecium [28]): 16 µg/mL; MIC [29]: > 32 µg/mL; MIC (Pseudomonas aeruginosa [30]): 16 µg/mL; MIC (Escherichia coli [31]): 16 µg/mL; MIC (Enterococcus faecium [32]): 16 µg/mL; MIC (Staphylococcus aureus [33]): 8 µg/mL; MIC (Staphylococcus aureus [34]): 8 µg/mL; MIC (Escherichia coli [35]): 16 µg/mL
